Test results reported in patent US20060275250A1, “Reactive polymers and copolymers, method of their preparation and their use” (priority 2003, published 2006).
≈ marks a conversion by molar mass, not a printed value.

Experiments:
[1] = system: ConA-stimulated mouse T-splenocytes; assay: In vitro cytotoxicity, [3H]thymidine incorporation, ConA-stimulated mouse T-splenocytes; assay type: cell-based; conditions: Splenocyte, 50% decrease in proliferation
Experimental: (§1) In vitro cytotoxicity tests were performed by a standard method on ConA-stimulated and nonstimulated mouse T-splenocytes and on a tumour line of mouse T-cell lymphom EL-4. Cytotoxicity was followed by a change of incorporation of [^3H]thymidine into cells incubated in a medium containing the tested sample in various concentrations. The cytotoxicity was expressed by the IC50 factor (the substance concentration at which a 50% decrease in proliferation of tested cells is observed).

[2] = system: mouse T-cell lymphom EL-4; assay: In vitro cytotoxicity, [3H]thymidine incorporation, EL-4 tumour line; assay type: cell-based; conditions: mouse T-cell lymphoma EL-4 line, 50% decrease in proliferation
Experimental: as §1

[3] = clinical testing; cumulative dose reached 1680 mg/m^2; cited from earlier work
human melanoma = assay: Treatment of human melanoma in nu-nu mice; assay type: in vivo; conditions: compared with the conjugate from ONp or Su reactive polymer, FIG. 3
From the text: The properties of the conjugate were compared with those of the conjugate prepared from the classic ONp reactive polymer. […] The synthesis using the reactive polymer according to the invention proceeded faster, a polymer with a smaller content of reactive groups (2 mol %) could be used for obtaining the same product, and in the resulting conjugate no unmodified protein or unreacted polymer was present (the conversion of the reaction of reactive groups was higher).
A star-like poly(HMPA)—RNase A conjugate was prepared from a semitelechelic polymer prepared according to Example 3 by the same procedure as in the synthesis starting from poly(HPMA) with succinimidyl end group. The star conjugate was purified from low-molecular-weight materials by preparative gel chromatography (Sephacryl S300, column 26×600 mm, flow-rate 12.5 ml/h, distilled water). After concentration using an ultrafiltration membrane (PM 30), the product was lyophilized. Comparing the conjugate syntheses using polymers with OSu and TT reactive groups, the latter led to higher reaction yields and much smaller amounts of unreacted (hydrolyzed) polymer in the reaction mixture.

Molecule: COc1cccc2c1C(=O)c1c(O)c3c(c(O)c1C2=O)C[C@@](O)(C(=O)CO)C[C@@H]3O[C@H]1C[C@H](N)[C@H](O)[C@H](C)O1 [Dox, doxorubicin]
- IC50 [1]: 0.07 µg/mL (≈ 0.129 µM)
- IC50 [2]: 0.03 µg/mL (≈ 0.0552 µM)

Molecule: N-(2-hydroxypropyl)methacrylamide copolymer doxorubicin [PK1]
- changes in cardial functions [3]: no serious changes in cardial functions were observed

B1: star-like poly(HMPA)—RNase A conjugate (conjugate, UniProt P61823 27-150, looked up)
Ribonuclease pancreatic: KETAAAKFERQHMDSSTSAASSSNYCNQMMKSRNLTKDRCKPVNTFVHESLADVQAVCSQKNVACKNGQTNCYQSYSTMSITDCRETGSSKYPNCAYKTTQANKHIIVACEGNPYVPVHFDASV
modifications: star-like poly(HPMA) polymer conjugate
- biological properties / in vivo activity in the treatment of human melanoma (human melanoma): active under in vivo conditions equally well as the conjugate prepared from reactive Su ester
